The text below walks through data of ChEMBL document CHEMBL5036338, “Structural Insights into the Inhibition of Undecaprenyl Pyrophosphate Synthase from Gram-Positive Bacteria” (2021).

Assay [1] relates to Staphylococcus aureus. Nature of the assay: Synergistic antibacterial activity against community acquired methicillin resistant Staphylococcus aureus USA300 assessed as potentiation of cefuroxime-induced antibacterial activity by measuring cefuroxime fractional inhibitory concentration incubated for 18 hrs by checkerboard broth microdilution assay. It counts as functional. (In general: Broth dilution looks for growth in wells or tubes with falling amounts of substance.)

The test system of assay [2] is Staphylococcus aureus. Nature of the assay: Synergistic antibacterial activity against community acquired methicillin resistant Staphylococcus aureus USA300 assessed as potentiation of cefuroxime-induced antibacterial activity by measuring cefuroxime MIC incubated for 18 hrs by checkerboard broth microdilution assay. Type of assay: functional.
For assay [3], the system named is Staphylococcus aureus. Nature of the assay: Synergistic antibacterial activity against community acquired methicillin resistant Staphylococcus aureus USA300 incubated for 18 hrs by checkerboard broth microdilution assay. It counts as functional.
Assay [4] has as its system Staphylococcus aureus. Kind of assay: Inhibition of Staphylococcus aureus UPPS using FPP and IPP as substrates preincubated for 20 mins followed by substrate addition.
Assay [5] deals with Staphylococcus aureus. Nature of the assay: Synergistic antibacterial activity against community acquired methicillin resistant Staphylococcus aureus USA300 assessed as fractional inhibitory concentration index in presence of cefuroxime incubated for 18 hrs by checkerboard broth microdilution assay. Type of assay: functional.
In assay [6] the test system is Staphylococcus aureus. Nature of the assay: Synergistic antibacterial activity against community acquired methicillin resistant Staphylococcus aureus USA300 assessed as fractional inhibitory concentration incubated for 18 hrs by checkerboard broth microdilution assay. It counts as functional.

Calls of active or inactive are those of the source. No cut-off for these calls is given here.

Consider `Cc1cc(N2CCCCCC2)n2ncc(-c3ccc(F)cc3)c2n1`, for which the FIC in the assay with Staphylococcus aureus [1] is listed as 0.0156; with Staphylococcus aureus [6] it was 0.0625. Also, the MIC in the assay on Staphylococcus aureus [2] was over 32 µg/mL; with Staphylococcus aureus [3], over 128 µg/mL. Also, in the assay with Staphylococcus aureus [4], the inhibition entry was “Active”. Further, the “fractional inhibitory concentration index (FICI)” value with Staphylococcus aureus [5] was 0.0781.

As to `CCN(CC)CCOc1ccc(/C(=C(/Cl)c2ccccc2)c2ccccc2)cc1` [ENCLOMIPHENE], the FIC was 0.063 in the assay on Staphylococcus aureus [1] and 0.25 in the assay on Staphylococcus aureus [6]. Moreover, the MIC in the assay on Staphylococcus aureus [2] came to 256 µg/mL; in the assay with Staphylococcus aureus [3], 16 µg/mL. Also, in the assay with Staphylococcus aureus [5], the “fractional inhibitory concentration index (FICI)” value is given as 0.313.

With `Cc1cc(N2CCCCCCC2)n2ncc(-c3ccc(F)cc3)c2n1`, the FIC in the assay on Staphylococcus aureus [1] and with Staphylococcus aureus [6] was 0.0312 each time. Further, the results for the MIC in the assay with Staphylococcus aureus [2] and in the assay with Staphylococcus aureus [3] were over 32 µg/mL and over 128 µg/mL, respectively. For the same molecule, the “fractional inhibitory concentration index (FICI)” value in the assay with Staphylococcus aureus [5] is 0.0625.

As for `Cc1cc(N2CCOCC2)n2ncc(-c3ccc(F)cc3)c2n1`, the FIC in the assay on Staphylococcus aureus [1] came out at 0.125; in the assay with Staphylococcus aureus [6], 0.03125. For the same molecule, the MIC with Staphylococcus aureus [2] is over 32 µg/mL; with Staphylococcus aureus [3], over 128 µg/mL. Moreover, the “fractional inhibitory concentration index (FICI)” value in the assay with Staphylococcus aureus [5] was 0.156.

As to `CCc1cc(N2CCCCCC2)n2ncc(-c3ccc(F)cc3)c2n1`, the FIC in the assay with Staphylococcus aureus [1] is reported as 0.0156; in the assay on Staphylococcus aureus [6] it was 0.0312. The MIC with Staphylococcus aureus [2] is over 32 µg/mL; with Staphylococcus aureus [3], over 128 µg/mL. For the same molecule, in the assay on Staphylococcus aureus [5], the “fractional inhibitory concentration index (FICI)” value came out at 0.0468.

Take `CCc1cc(N2CCCCCCC2)n2ncc(-c3ccc(F)cc3)c2n1`: the values for the FIC in the assay on Staphylococcus aureus [1] and in the assay with Staphylococcus aureus [6] were 0.0625 and 0.125, respectively. In addition, the MIC with Staphylococcus aureus [2] is over 32 µg/mL; in the assay on Staphylococcus aureus [3] it was over 128 µg/mL. In the assay on Staphylococcus aureus [5], the “fractional inhibitory concentration index (FICI)” value was found to be 0.1875.

Consider `CCCc1cc(N2CCCCCC2)n2ncc(-c3ccc(F)cc3)c2n1`, for which the FIC in the assay on Staphylococcus aureus [1] and with Staphylococcus aureus [6] was 0.0312 in each case. For the same molecule, the results for the MIC with Staphylococcus aureus [2] and with Staphylococcus aureus [3] were over 32 µg/mL and over 128 µg/mL, respectively. Moreover, the “fractional inhibitory concentration index (FICI)” value in the assay with Staphylococcus aureus [5] stood at 0.0625.

As to `Cc1cc(N2CCCCCC2)n2ncc(-c3cccc(F)c3)c2n1`, the FIC worked out at 0.0312 in the assay with Staphylococcus aureus [1] and 0.0625 in the assay with Staphylococcus aureus [6]. In addition, the figures for the MIC with Staphylococcus aureus [2] and with Staphylococcus aureus [3] were over 32 µg/mL and over 128 µg/mL, respectively. The “fractional inhibitory concentration index (FICI)” value in the assay with Staphylococcus aureus [5] turned out to be 0.0937.

For orientation: MIC means the least concentration at which growth counts as inhibited.
